# From patent US12637448B2, “Tricyclic compounds and use thereof” (HELIOEAST PHARMACEUTICAL CO., LTD, priority 2020, dated 2026)
# Experiments:
# [1] = Pharmacokinetic evaluation in CD-1 mice (intravenous injection and oral administration); assay type: in vivo; settings: mouse, male, plasma
# Experimental: Test Embodiment 3: Pharmacokinetic Evaluation of Compound in Mice
# Experimental Objective: To Test the Pharmacokinetics of the Compound in CD-1 Mice
# CD-1 mice (male, 20-40 g, 6-10 weeks old, Shanghai BK)
# (§1) The standard protocol was used to test the pharmacokinetic characteristics of rodents after intravenous injection and oral administration of the compound. In the experiment, the candidate compound was prepared into a clear solution, and administrated to two mice by single intravenous injection and oral administration. The vehicle for intravenous injection was a 5:95 DMSO and 10% hydroxypropyl β-cyclodextrin aqueous solution, and the vehicle for oral administration was a 0.5% w/v methylcellulose and 0.2% w/v tween 80 aqueous solution. Whole blood samples within 24 hours were collected, centrifuged at 3200 g for 10 minutes, and the supernatant was separated to obtain plasma samples. Four times the volume of acetonitrile solution containing internal standard was added thereto to precipitate protein. The mixture was centrifuged, and the supernatant was taken, and an equal volume of water was added thereto. Then the mixture was centrifuged and the supernatant was taken for injection. The blood drug concentration was quantitatively analyzed by LC-MS/MS analysis method, and pharmacokinetic parameters, such as peak concentration, tissue distribution, clearance rate, half-life, area under the drug-time curve and bioavailability, were calculated.
# [2] = Pharmacokinetic evaluation in SD rats (intravenous injection and oral administration); assay type: in vivo; settings: Sprague-Dawley, plasma, SD rat, male
# Experimental: Test Embodiment 2: Pharmacokinetic Evaluation of Compound in Rats
# Experimental Objective: To Test the Pharmacokinetics of the Compound in SD Rats
# Sprague Dawley rat (male, 200-300 g, 7-9 weeks old, Shanghai SLAC)
# as §1, with “A standard” for “The standard”, “to rats” for “to two mice”, “at 3000” for “at 3200”, “for 15” for “for 10”, “concentration, clearance rate,” for “concentration,”, “distribution,” for “distribution, clearance rate,”
# S1PR1 = target: T1, S1PR1 (Homo sapiens, UniProt P21453); test: In vitro S1PR1 agonistic activity (PathHunter cell line, chemiluminescence); assay type: cell-based; settings: for Emax: % activity relative to maximum control ligand; for EC50: agonist mode, 90-180 minutes at 37° C.
# T1 construct: expressed in transfected cells
# Experimental: Test Embodiment 1: In Vitro Evaluation of the Agonistic Activity of the Compounds of the Present Disclosure on S1PR1
# Experimental Objective: To Detect the Agonistic Activity of Compounds on S1PR1
# • 1. A PathHunter cell line was thawed according to standard procedures; • 2. the cells were inoculated in a 20 μL 384-well microplate and incubated at 37° C. for appropriate time. II. Agonist • 1. For agonist determination, cells were incubated with samples to be tested to induce a reaction; • 2. a storage solution to be tested was 5-fold diluted into a buffer; • 3. 5 μL of the 5-fold dilution was added to the cells and incubated at 37° C. for 90-180 minutes. The vehicle concentration was 1%. III. Signal Detection • 1. 12.5 μL or 15 μL of PathHunter detection reagent at a volume ratio of 50% was added at a time, and then incubated at room temperature for 1 hour to generate a detection signal; • 2. the microplate was read with a PerkinElmer Envision™ instrument for chemiluminescent signal detection. IV. Data Analysis • 1. Activity analysis of the compound was carried out by using CBIS data analysis kit (ChemInnovation, CA); • 2. Calculation formula: % activity=100%×(average test sample RLU−average vehicle RLU)/(average maximum control ligand−average vehicle RLU)
# T1 sequence (P21453 whole entry): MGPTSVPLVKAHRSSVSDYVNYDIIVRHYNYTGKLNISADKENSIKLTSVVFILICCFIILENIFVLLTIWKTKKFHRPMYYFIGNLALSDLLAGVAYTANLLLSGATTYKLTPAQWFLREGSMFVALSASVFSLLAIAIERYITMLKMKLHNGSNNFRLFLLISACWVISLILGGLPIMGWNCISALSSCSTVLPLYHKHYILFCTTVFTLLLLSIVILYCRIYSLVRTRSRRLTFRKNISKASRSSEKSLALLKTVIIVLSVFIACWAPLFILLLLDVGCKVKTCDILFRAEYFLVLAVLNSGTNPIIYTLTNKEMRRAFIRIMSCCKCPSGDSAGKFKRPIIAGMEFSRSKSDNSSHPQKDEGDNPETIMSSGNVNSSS
SMILES,Emax (S1PR1),EC50 (S1PR1),also measured
CC(C)Oc1ncc(-c2nc(-c3cccc4c3CCC43CC(=O)N(CCO)C3)no2)cc1Br (centres unmarked) [Compound 3],62.8%,4.46 nM,
CC(C)Oc1ncc(-c2nsc(-c3cccc4c3CCC43CC(=O)N(CCO)C3)n2)cc1C#N (centres unmarked) [Compound 4],67.6%,20.9 nM,
CC(C)Oc1ncc(-c2ncc(-c3cccc4c3CCC43CC(=O)N(CCO)C3)o2)cc1C#N (centres unmarked) [Compound 5],63.5%,24.3 nM,
CC(C)Oc1ncc(-c2ncc(-c3cccc4c3CCC43CC(=O)N(CCO)C3)cn2)cc1C#N (centres unmarked) [Compound 6],78.5%,7.1 nM,
CC(C)Oc1ncc(-c2ncc(-c3cccc4c3CCC43CC(=O)N(CCO)C3)s2)cc1C#N (centres unmarked) [Compound 7],88.1%,2.84 nM,
CC(C)Oc1ncc(-c2nc(-c3cccc4c3CCC43CC(=O)N(CC(=O)O)C3)no2)cc1C#N (centres unmarked) [Compound 8],110%,1.25 nM,
CC(C)Oc1ncc(-c2nnc(-c3cccc4c3CCC43CC(=O)N(CCO)C3)s2)cc1C#N (centres unmarked) [Compound 11],104%,6.12 nM,

# These reach a lower EC50 (S1PR1). Values come first.
Emax (S1PR1),EC50 (S1PR1),SMILES,also measured
104%,0.613 nM,CC(C)Oc1ncc(-c2nc(-c3cccc4c3CCC43CC(=O)N(CCC(=O)O)C3)no2)cc1C#N (centres unmarked) [Compound 9],
92%,0.474 nM,CC(C)Oc1ncc(-c2nc(-c3cccc4c3CCC43CCN(C4CC(C(=O)O)C4)C3)no2)cc1C#N (centres unmarked) [Compound 10],
99.3%,0.134 nM,CC(C)Oc1ncc(-c2nc(-c3cccc4c3CCC43CC(=O)N(CCO)C3)no2)cc1C#N (centres unmarked) [Compound 1],"Cmax ([1]; intravenous 0.5 mg/kg / oral 2.0 mg/kg, read-out: Peak concentration Cmax): 2830 ng/mL; AUC(0-t) ([1]; PO 2.0 mg/kg, read-out: Area under the drug-time curve AUC0-last PO): 21.3 µM·h; half-life ([1]; PO 2.0 mg/kg, read-out: Half-life T1/2 (PO) (converted)): 3.5 h; clearance ([1]; intravenous 0.5 mg/kg / oral 2.0 mg/kg, read-out: Clearance rate CL): 3.42 mL/min/kg; Vd ([1]; intravenous 0.5 mg/kg / oral 2.0 mg/kg, read-out: Tissue distribution Vdss): 0.902 L/kg; bioavailability ([1]; intravenous 0.5 mg/kg, oral 2.0 mg/kg, read-out: Bioavailability F): 100%; AUC(0-t) ([2]; PO 3.0 mg/kg, read-out: Area under the drug-time curve AUC0-last PO): 35.5 µM·h; half-life ([2]; PO 3.0 mg/kg, read-out: Half-life T1/2 (PO) (converted)): 7.22 h; clearance ([2]; intravenous 1.0 mg/kg / oral 3.0 mg/kg, read-out: Clearance rate CL): 1.66 mL/min/kg; Vd ([2]; intravenous 1.0 mg/kg / oral 3.0 mg/kg, read-out: Tissue distribution Vdss): 1.18 L/kg; bioavailability ([2]; intravenous 1.0 mg/kg, oral 3.0 mg/kg, read-out: Bioavailability F): 71.9%; Cmax ([2]; intravenous 1.0 mg/kg / oral 3.0 mg/kg, read-out: Peak concentration Cmax): 3100 ng/mL"
